The values that follow come from paper PMC10218596 (International Journal of Molecular Sciences, 2023).

Format in all cases: cell-based
In one assay the target is T1, h[α6V32L, K61R/α3]β4 (Homo sapiens, UniProt P30926+P32297+Q15825, K94R/V65L).
T1 construct: formed by splicing the N-terminal extracellular domain of the α6 subunit with the α3 subunit; fusion partner: remainder of the human α3 subunit (CHRNA3); expressed in transfected cells; host or cells: Xenopus laevis oocytes injected with cRNA
To be noted: ACh on h[α6V32L.

Another assay concerns the target T2, h[α6N110D/α3]β4 (Homo sapiens, UniProt P30926+P32297+Q15825, N143D).
T2 construct: formed by splicing the N-terminal extracellular domain of the α6 subunit with the α3 subunit; fusion partner: remainder of the human α3 subunit (CHRNA3); expressed in transfected cells; host or cells: Xenopus laevis oocytes injected with cRNA
Kind of assay: Electrophysiological assay, ACh concentration-response (Xenopus oocytes). To be noted: ACh on h[α6N110D/α3]β4.

For the next assay, the target named is T3, h[α6M67T/α3]β4 (Homo sapiens, UniProt P30926+P32297+Q15825, M100T).
T3 construct: formed by splicing the N-terminal extracellular domain of the α6 subunit with the α3 subunit; fusion partner: remainder of the human α3 subunit (CHRNA3); expressed in transfected cells; host or cells: Xenopus laevis oocytes injected with cRNA
The following applies: ACh on h[α6M67T/α3]β4.

The next assay concerns the target T4, h[α6K7T/α3]β4 (Homo sapiens, UniProt P30926+P32297+Q15825, K40T).
T4 construct: formed by splicing the N-terminal extracellular domain of the α6 subunit with the α3 subunit; human nAChR α3 subunit (CHRNA3); expressed in transfected cells; host or cells: Xenopus laevis oocytes injected with cRNA (plasmids from the University of Utah)
Kind of assay: Electrophysiological assay, ACh concentration-response (Xenopus oocytes). To be noted: ACh on h[α6K7T/α3]β4.

A further assay addresses T5, h[α6S10A/α3]β4 (Homo sapiens, UniProt P30926+P32297+Q15825, S43A).
T5 construct: formed by splicing the N-terminal extracellular domain of the α6 subunit with the α3 subunit; human nAChR α3 subunit (CHRNA3); expressed in transfected cells; host or cells: Xenopus laevis oocytes injected with cRNA (plasmids from the University of Utah)
The following applies: ACh on h[α6S10A/α3]β4.

The next assay concerns the target T6, h[α6R3Q/α3]β4 (Homo sapiens, UniProt P30926+P32297+Q15825, R36Q).
T6 construct: formed by splicing the N-terminal extracellular domain of the α6 subunit with the α3 subunit; human nAChR α3 subunit (CHRNA3); expressed in transfected cells; host or cells: Xenopus laevis oocytes injected with cRNA (plasmids from the University of Utah)
Briefly: Electrophysiological assay, ACh concentration-response (Xenopus oocytes). To be noted: ACh on h[α6R3Q/α3]β4.

The next assay addresses T7, h[α6R63C/α3]β4 (Homo sapiens, UniProt P30926+P32297+Q15825, R96C).
T7 construct: formed by splicing the N-terminal extracellular domain of the α6 subunit with the α3 subunit; human nAChR α3 subunit (CHRNA3); expressed in transfected cells; host or cells: Xenopus laevis oocytes injected with cRNA (plasmids from the University of Utah)
To be noted: ACh on h[α6R63C/α3]β4.

For the next assay, the target named is T8, h[α6Q14R/α3]β4 (Homo sapiens, UniProt P30926+P32297+Q15825, Q47R).
T8 construct: formed by splicing the N-terminal extracellular domain of the α6 subunit with the α3 subunit; human nAChR α3 subunit (CHRNA3); expressed in transfected cells; host or cells: Xenopus laevis oocytes injected with cRNA (plasmids from the University of Utah)
The following applies: ACh on h[α6Q14R/α3]β4.

For the next assay, the target named is T9, h[α6K81N/α3]β4 (Homo sapiens, UniProt P30926+P32297+Q15825, K114N).
T9 construct: formed by splicing the N-terminal extracellular domain of the α6 subunit with the α3 subunit; fusion partner: remainder of the human α3 subunit (CHRNA3); expressed in transfected cells; host or cells: Xenopus laevis oocytes injected with cRNA
The following applies: ACh on h[α6K81N/α3]β4.

In the next assay the target is T10, h[α6K61R/α3]β4 (Homo sapiens, UniProt P30926+P32297+Q15825, K94R).
T10 construct: formed by splicing the N-terminal extracellular domain of the α6 subunit with the α3 subunit; human nAChR α3 subunit (CHRNA3); expressed in transfected cells; host or cells: Xenopus laevis oocytes injected with cRNA (plasmids from the University of Utah)
Briefly: Electrophysiological assay, ACh concentration-response (Xenopus oocytes). To be noted: ACh on h[α6K61R/α3]β4.

The next assay concerns the target T11, h[α6M112V/α3]β4 (Homo sapiens, UniProt P30926+P32297+Q15825, M145V).
T11 construct: formed by splicing the N-terminal extracellular domain of the α6 subunit with the α3 subunit; fusion partner: remainder of the human α3 subunit (CHRNA3); expressed in transfected cells; host or cells: Xenopus laevis oocytes injected with cRNA
To be noted: ACh on h[α6M112V/α3]β4.

The next assay addresses T12, h[α6N58K/α3]β4 (Homo sapiens, UniProt P30926+P32297+Q15825, N91K).
T12 construct: formed by splicing the N-terminal extracellular domain of the α6 subunit with the α3 subunit; human nAChR α3 subunit (CHRNA3); expressed in transfected cells; host or cells: Xenopus laevis oocytes injected with cRNA (plasmids from the University of Utah)
Briefly: Electrophysiological assay, ACh concentration-response (Xenopus oocytes). To be noted: ACh on h[α6N58K/α3]β4.

In the next assay the target is T13, h[α6V32L/α3]β4 (Homo sapiens, UniProt P30926+P32297+Q15825, V65L).
T13 construct: formed by splicing the N-terminal extracellular domain of the α6 subunit with the α3 subunit; human nAChR α3 subunit (CHRNA3); expressed in transfected cells; host or cells: Xenopus laevis oocytes injected with cRNA (plasmids from the University of Utah)
The following applies: ACh on h[α6V32L/α3]β4.

Another assay deals with T14, h[α6I176V/α3]β4 (Homo sapiens, UniProt P30926+P32297+Q15825, I209V).
T14 construct: formed by splicing the N-terminal extracellular domain of the α6 subunit with the α3 subunit; fusion partner: remainder of the human α3 subunit (CHRNA3); expressed in transfected cells; host or cells: Xenopus laevis oocytes injected with cRNA
Kind of assay: Electrophysiological assay, ACh concentration-response (Xenopus oocytes). The following applies: ACh on h[α6I176V/α3]β4.

For assay [1], the target named is T15, h[α6V32L, K61R/α3]β4L107V,V115I (Homo sapiens, UniProt P30926+P32297+Q15825, K94R/L133V/V141I/V65L).
T15 construct: formed by splicing the N-terminal extracellular domain of the α6 subunit with the α3 subunit; fusion partner: remainder of the human α3 subunit (CHRNA3); expressed in transfected cells; host or cells: Xenopus laevis oocytes injected with cRNA
The following applies: ACh on h[α6V32L.

T14 sequence (Q15825+P32297 fused with the stated changes): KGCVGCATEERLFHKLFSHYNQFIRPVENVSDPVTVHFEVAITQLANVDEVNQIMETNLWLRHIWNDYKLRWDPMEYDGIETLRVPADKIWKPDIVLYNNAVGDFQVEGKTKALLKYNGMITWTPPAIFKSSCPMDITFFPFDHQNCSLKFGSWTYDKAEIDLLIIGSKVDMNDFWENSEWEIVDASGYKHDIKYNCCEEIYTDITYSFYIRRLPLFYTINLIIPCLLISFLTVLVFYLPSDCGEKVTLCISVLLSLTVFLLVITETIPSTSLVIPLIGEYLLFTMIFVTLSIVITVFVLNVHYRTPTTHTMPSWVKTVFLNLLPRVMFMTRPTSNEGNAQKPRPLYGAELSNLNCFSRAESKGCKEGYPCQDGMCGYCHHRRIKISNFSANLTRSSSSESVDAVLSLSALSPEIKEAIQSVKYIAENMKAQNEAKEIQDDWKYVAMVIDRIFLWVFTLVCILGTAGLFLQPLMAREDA
T14 sequence (P30926 22-498): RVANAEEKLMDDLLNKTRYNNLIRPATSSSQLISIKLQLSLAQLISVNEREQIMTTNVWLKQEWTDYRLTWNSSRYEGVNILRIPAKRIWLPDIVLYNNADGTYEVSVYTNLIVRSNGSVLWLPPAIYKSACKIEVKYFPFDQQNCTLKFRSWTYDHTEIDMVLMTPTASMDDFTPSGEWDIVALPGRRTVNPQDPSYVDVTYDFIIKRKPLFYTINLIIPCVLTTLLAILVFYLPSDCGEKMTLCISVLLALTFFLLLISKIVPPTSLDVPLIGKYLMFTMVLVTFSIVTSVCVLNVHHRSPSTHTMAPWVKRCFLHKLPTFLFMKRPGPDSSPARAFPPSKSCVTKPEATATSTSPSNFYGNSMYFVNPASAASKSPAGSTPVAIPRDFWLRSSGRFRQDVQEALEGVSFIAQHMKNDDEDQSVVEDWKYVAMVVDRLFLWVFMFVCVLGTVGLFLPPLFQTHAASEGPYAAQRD
T7 sequence (Q15825+P32297 fused with the stated changes): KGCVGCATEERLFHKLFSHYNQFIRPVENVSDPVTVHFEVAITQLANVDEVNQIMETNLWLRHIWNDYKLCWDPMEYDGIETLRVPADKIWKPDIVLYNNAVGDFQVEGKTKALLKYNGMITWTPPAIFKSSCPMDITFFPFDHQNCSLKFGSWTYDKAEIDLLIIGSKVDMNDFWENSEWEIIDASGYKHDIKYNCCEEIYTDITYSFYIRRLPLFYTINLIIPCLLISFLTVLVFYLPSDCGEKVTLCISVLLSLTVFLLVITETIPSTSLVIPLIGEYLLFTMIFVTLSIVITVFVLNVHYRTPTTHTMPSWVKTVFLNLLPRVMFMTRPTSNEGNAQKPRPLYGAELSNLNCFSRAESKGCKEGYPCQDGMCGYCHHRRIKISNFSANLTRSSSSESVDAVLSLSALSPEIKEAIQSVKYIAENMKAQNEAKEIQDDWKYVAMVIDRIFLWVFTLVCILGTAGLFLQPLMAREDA
T7 sequence (P30926 22-498, stated change not applied): as the sequence (P30926 22-498) above
T6 sequence (Q15825+P32297 fused with the stated changes): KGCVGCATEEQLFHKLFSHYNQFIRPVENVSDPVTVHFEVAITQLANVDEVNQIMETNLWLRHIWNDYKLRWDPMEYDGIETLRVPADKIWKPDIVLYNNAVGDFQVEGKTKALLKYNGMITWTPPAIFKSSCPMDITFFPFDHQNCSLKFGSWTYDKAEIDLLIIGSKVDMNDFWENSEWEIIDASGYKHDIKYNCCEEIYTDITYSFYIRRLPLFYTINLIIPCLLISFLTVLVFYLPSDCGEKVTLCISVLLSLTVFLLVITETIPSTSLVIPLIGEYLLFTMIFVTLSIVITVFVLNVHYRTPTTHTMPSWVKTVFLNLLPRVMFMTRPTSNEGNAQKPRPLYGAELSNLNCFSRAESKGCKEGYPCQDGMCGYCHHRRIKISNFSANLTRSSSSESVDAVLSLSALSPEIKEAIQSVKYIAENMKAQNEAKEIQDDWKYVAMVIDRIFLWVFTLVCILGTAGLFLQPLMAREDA
T6 sequence (P30926 22-498): as the sequence (P30926 22-498) above
T3 sequence (Q15825+P32297 fused with the stated changes): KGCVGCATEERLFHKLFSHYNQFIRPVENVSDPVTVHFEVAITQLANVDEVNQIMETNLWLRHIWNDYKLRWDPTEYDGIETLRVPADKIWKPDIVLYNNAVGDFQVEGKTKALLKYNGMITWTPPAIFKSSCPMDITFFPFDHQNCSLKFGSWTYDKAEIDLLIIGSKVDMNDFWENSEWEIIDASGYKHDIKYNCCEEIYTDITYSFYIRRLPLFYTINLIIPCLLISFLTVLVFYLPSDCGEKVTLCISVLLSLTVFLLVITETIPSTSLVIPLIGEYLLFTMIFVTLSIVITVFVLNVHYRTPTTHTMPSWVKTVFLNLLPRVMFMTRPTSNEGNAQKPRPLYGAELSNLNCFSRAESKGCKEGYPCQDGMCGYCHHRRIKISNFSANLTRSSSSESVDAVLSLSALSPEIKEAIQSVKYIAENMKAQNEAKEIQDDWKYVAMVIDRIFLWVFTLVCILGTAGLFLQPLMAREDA
T3 sequence (P30926 22-498): as the sequence (P30926 22-498) above
T15 sequence (Q15825+P32297 fused with the stated changes): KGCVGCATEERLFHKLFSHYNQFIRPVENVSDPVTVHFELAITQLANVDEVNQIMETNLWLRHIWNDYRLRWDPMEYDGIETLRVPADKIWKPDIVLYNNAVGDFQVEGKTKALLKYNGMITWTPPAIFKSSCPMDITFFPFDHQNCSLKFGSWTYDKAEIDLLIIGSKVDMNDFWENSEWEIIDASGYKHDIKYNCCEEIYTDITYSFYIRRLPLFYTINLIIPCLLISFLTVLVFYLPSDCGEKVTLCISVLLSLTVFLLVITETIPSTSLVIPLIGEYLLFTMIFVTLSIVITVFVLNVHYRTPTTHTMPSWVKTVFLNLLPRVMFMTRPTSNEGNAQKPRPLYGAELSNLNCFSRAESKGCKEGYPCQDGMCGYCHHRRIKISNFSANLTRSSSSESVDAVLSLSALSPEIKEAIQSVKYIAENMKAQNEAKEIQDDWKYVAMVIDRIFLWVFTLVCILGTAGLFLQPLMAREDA
T15 sequence (P30926 22-498 L133V/V141I): as the sequence (P30926 22-498) above, with L112V, V120I counted along it

In the case of `CC(=O)OCC[N+](C)(C)C` [ACh, acetylcholine chloride], the “Hill Slope” value at h[α6V32L, K61R/α3]β4 was 1.2 (1.1–1.3); on h[α6N110D/α3]β4 it was 1.2 (0.9–1.6); at h[α6M67T/α3]β4, 1.4 (0.9–2.2); on h[α6K7T/α3]β4 it was 1.5 (1.1–1.9); at h[α6S10A/α3]β4, 1.6 (1.2–2.3); on h[α6R3Q/α3]β4 it was 1.4 (1.2–1.8). The “Hill Slope” value was 1.5 (1.2–1.8) on h[α6R63C/α3]β4; 1.4 (1.2–1.6) on h[α6Q14R/α3]β4; 1.4 (1.3–1.7) at h[α6K81N/α3]β4; 1.4 (1.2–1.7) on h[α6K61R/α3]β4; 1.4 (1.1–1.8) at h[α6M112V/α3]β4; 1.4 (1.2–1.7) on h[α6N58K/α3]β4. Also, the “Hill Slope” value on h[α6V32L/α3]β4 is reported as 1.5 (1.3–1.9); at h[α6I176V/α3]β4, 1.7 (1.4–2.1); in assay [1], 1.2 (1.0–1.5).
